The source of these data is US20220362219A1, “RETINA REGENERATION THROUGH EPIGENETICS MANIPULATION” (Baylor College of Medicine, priority 2019, published 2022).

SMILES strings stand for the structures. “Also recorded” adds a separate entry of the source.

The test system of data set [1] is histone markers H3K27Ac and H3K9Me3 in the retina. Nature of the data set: Chromatin modification in the retina after intravitreal injection (antibody staining of histone markers). In kind it is in vivo, mouse. The settings on record: FIG. 2. An excerpt: The outer nuclear layers (ONL) and the inner nuclear layers (INL) of the respective retina are shown. Markers related to reduced levels of histone acetylation (H3K27Ac) and increased levels of histone […] are identified with corresponding antibodies.
Further evidence is provided that HATi are useful for chromatin modifications that lead to epigenomic manipulation, thereby leading to regeneration of retinal cells. […] Upon intravitreal injection of the compound SYC1127, there is reduction in the level of histone acetylation as expected, such as with H3K27Ac (an epigenetic modification to Histone H3 that is a mark that indicates the acetylation at the 27th lysine residue of the Histone H3 protein). At the same time, the level of chromatin-repressing histone markers, such as H3K9Me3, is increased.

In a further data set the test system is Spata7 mutant retina. Nature of the data set: Intravitreal injection in Spata7 knockout retinal degeneration mouse model (H&E, immunohistochemistry). In kind it is in vivo. The protocol: (§1) FIGS. 1A-1C concern an example of retinal regeneration in Spata7-mutated (KO) retinal cells. (1A) One example of a timeline for studies, where the examples of timepoints are post-natal day 14, 21, and 34, respectively. (1B) Hematoxylin and eosin (H&E) staining for Spata7 KO mice versus wild-type control. Eyes were injected with SYC1127 (treated) eye compared to PBS-injected control. (1C) Immunofluorescence staining for Cone-rod homeobox protein (CRX, a marker for photoreceptor cells and bipolar cells); Glial fibrillary acidic protein (GFAP, a marker for Müller glial cells); and RNA Binding Protein, MRNA Processing Factor (RBPMS, a marker for retinal ganglion cells (RGC)) in Spata7 KO-treated eye (treated with SYC1127) and control eye (treated with PBS).
(§2) H&E staining of all three neural layers of the retina is shown following intravitreal injection of SYC1127 in wild-type mice vs. Spata7 KO mutants.
Immunohistochemistry using antibodies that bind Sox9 or GFAP, both markers of Müller glial cells, is provided for SYC1127-treated Spata7 KO mutants vs. PBS controls.
In this present example, one example of a potent Histone Acetylation Transferase inhibitor (HATi), the compound SYC1127, is administered by intravitreal injection in a retinal degeneration mouse model having a knockout mutation in Spata7. An example of an injection regimen is provided in FIG. 1A, in which there are multiple intravitreal injections. […] To examine if these newly generated cells are indeed differentiated properly, immunohistochemistry (IHC) using antibodies against certain cell type-specific markers is performed. […] The number of regenerative cells is much higher than that of previously reported by others, making it useful for therapy.
Retinal regeneration is induced through epigenomics manipulation, in particular embodiments. […] As at least one type of retinal cells, retinal ganglion cells are induced following administration of SYC1127.

The test system of another data set is wild-type control retina. Nature of the data set: Intravitreal injection in wild-type control retina (H&E). In kind it is in vivo. The method, then: as §1, §2
In this present example, one example of a potent Histone Acetylation Transferase inhibitor (HATi), the compound SYC1127, is administered by intravitreal injection in a retinal degeneration mouse model having a knockout mutation in Spata7. An example of an injection regimen is provided in FIG. 1A, in which there are multiple intravitreal injections. […]

With `c1cc(-c2ccc(-c3ncc(OCC4CCNCC4)nc3-c3ccc(-c4ccoc4)cc3)cc2)co1` [SYC1127, 2,3-bis(4-(furan-3-yl)phenyl)-5-(piperidin-4-ylmethoxy)pyrazine], in data set [1], the “level of chromatin-repressing histone markers (H3K9Me3)” value is recorded as “increased” and the “level of histone acetylation (H3K27Ac)” value is given as “reduction”. In the data set with Spata7 mutant retina (Spata7 KO, IHC, FIG. 5), the “migration of Müller glial cells” value is “Migration of Müller glial cells from the INL to photoreceptor and retinal ganglion cell layers”; the “number of Müller glial cells (Sox9 positive cells and GFAP staining)” value is on record as “Increase in the number of Müller glial cells”. Further, in the data set with Spata7 mutant retina (intravitreal injection, H&E, FIG. 1B), the “thickness of neuronal layers vs uninjected Spata7 mutant retina” value is “thickening of all three neuronal layers”. The “cell proliferation in Spata7 mutant retina” value in the data set with Spata7 mutant retina (intravitreal injection, H&E, FIG. 1B / FIG. 3) is reported as “extensive cell proliferation; also recorded: proliferation of all three neural layers of the retina”. Further, in the data set on Spata7 mutant retina (intravitreal injection, IHC, FIG. 1C), the “Müller glia cell activation (GFAP staining)” value is “massive elevated Müller glia cell activation”. The “retinal ganglion cells (RBPMS staining)” value with Spata7 mutant retina (intravitreal injection, IHC, FIG. 1C / FIG. 4) was “multiple layers of cells that are positive for retinal ganglion cells (RGC) are observed; also recorded: increase of cells in the RGC layer”. Besides, in the data set with Spata7 mutant retina (intravitreal injection, overall conclusion), the “regeneration of retinal neurons in degenerating retina” value is given as “complete regeneration of retinal neurons”. Also, in the data set with wild-type control retina (FIG. 1B), the “toxicity of injection of the drug” value is listed as “not toxic”. For the same compound, the “change in wild-type control retina” value in the data set with wild-type control retina (wild-type, FIG. 1B / FIG. 3) is recorded as “little change; also recorded: no changes are observed”.
